In brackets after ≈: the same amount, converted by molar mass. Where two headings read alike, the source gives them in different places.
Tests used:
Assay type in all cases: cell-based
[1] = test system: Staphylococcus epidermidis; assay: Heart Infusion Agar Dilution Method, antimicrobial activity (MIC); settings: pH 7.2
From the text: (§1) Heart Infusion Agar Dilution Method (pH 7.2) is used. A cephalosporin compound having the same acyl side chain corresponding to the dl-compound is used as a control. The compounds are identified as follows.

[2] = test system: Staphylococcus aureus Smith; assay: as above
From the text: as §1

[3] = test system: Pseudomonas aeruginosa 145; assay: as above; settings: Pseudomonas aeruginosa, 145, pH 7.2, Pseudomonas aeruginosa 145
From the text: as §1, with “Antimicrobial activities of the compounds obtained in Reference Examples 1 and 2 are as follows. Heart” for “Heart”

Proteus rettgeri KY 4289 = assay: as above; settings: Providencia rettgeri, KY4289, pH 7.2
From the text: as §1, with “Antimicrobial activities of the compounds obtained in Reference Examples 1 and 2 are as follows. Heart” for “Heart”

[4] = test system: Staphylococcus aureus 209-P; assay: as above
From the text: as §1, with “Antimicrobial activities of the compounds obtained in Reference Examples 1 and 2 are as follows. Heart” for “Heart”

Proteus vulgaris 6897 = assay: as above; settings: Proteus vulgaris, 6897, pH 7.2, Proteus vulgaris 6897
From the text: as §1, with “Antimicrobial activities of the compounds obtained in Reference Examples 1 and 2 are as follows. Heart” for “Heart”

[5] = test system: Escherichia coli GN2411-5; assay: as above
From the text: as §1, with “Antimicrobial activities of the compounds obtained in Reference Examples 1 and 2 are as follows. Heart” for “Heart”

Escherichia coli Juhl = assay: as above
From the text: as §1, with “Antimicrobial activities of the compounds obtained in Reference Examples 1 and 2 are as follows. Heart” for “Heart”

Proteus mirabilis 1287 = assay: as above; settings: Proteus mirabilis, 1287, pH 7.2, Proteus mirabilis 1287
From the text: as §1, with “Antimicrobial activities of the compounds obtained in Reference Examples 1 and 2 are as follows. Heart” for “Heart”

Pseudomonas putida 264 = assay: as above
From the text: as §1, with “Antimicrobial activities of the compounds obtained in Reference Examples 1 and 2 are as follows. Heart” for “Heart”

[6] = test system: Pseudomonas aeruginosa #1; assay: as above
From the text: as §1, with “Antimicrobial activities of the compounds obtained in Reference Examples 1 and 2 are as follows. Heart” for “Heart”

Proteus morganii KY 4298 = assay: as above
From the text: as §1, with “Antimicrobial activities of the compounds obtained in Reference Examples 1 and 2 are as follows. Heart” for “Heart”

Serratia marcescens T-55 = assay: as above
From the text: as §1, with “Antimicrobial activities of the compounds obtained in Reference Examples 1 and 2 are as follows. Heart” for “Heart”

[7] = test system: Klebsiella pneumoniae 8045; assay: as above; settings: Klebsiella pneumoniae, 8045, pH 7.2, Klebsiella pneumoniae 8045
From the text: as §1, with “Antimicrobial activities of the compounds obtained in Reference Examples 1 and 2 are as follows. Heart” for “Heart”

[8] = test system: Klebsiella pneumoniae Y-60; assay: as above
From the text: as §1, with “Antimicrobial activities of the compounds obtained in Reference Examples 1 and 2 are as follows. Heart” for “Heart”

Serratia marcescens T-26 = assay: as above
From the text: as §1, with “Antimicrobial activities of the compounds obtained in Reference Examples 1 and 2 are as follows. Heart” for “Heart”

Escherichia coli NIHJC-2 = assay: as above
From the text: as §1, with “Antimicrobial activities of the compounds obtained in Reference Examples 1 and 2 are as follows. Heart” for “Heart”

[9] = antimicrobial activity (stated in words)
From the text: as §1, with “Antimicrobial activities of the compounds obtained in Reference Examples 1 and 2 are as follows. Heart” for “Heart”

[10] = Escherichia coli, GN2411, pH 7.2, Escherichia coli GN2411-5, read-out: MIC
[11] = Escherichia coli, pH 7.2, Escherichia coli Juhl, read-out: MIC
[12] = Pseudomonas aeruginosa, pH 7.2, Pseudomonas aeruginosa #1, read-out: MIC
[13] = Morganella morganii, KY4298, pH 7.2, Proteus morganii KY 4298, read-out: MIC
[14] = Klebsiella pneumoniae, Y60, pH 7.2, Klebsiella pneumoniae Y-60, read-out: MIC
[15] = Serratia marcescens, T26, pH 7.2, Serratia marcescens T-26, read-out: MIC
[16] = Escherichia coli, NIHJC2, pH 7.2, Escherichia coli NIHJC-2, read-out: MIC
[17] = Staphylococcus aureus 209-P, pH 7.2
[18] = Serratia marcescens T-55, pH 7.2

Row | Compound | MIC [3] [µg/mL] | MIC (Proteus rettgeri KY 4289) [µg/mL] | MIC (Proteus vulgaris 6897) [µg/mL] | MIC [5, 10] [µg/mL] | MIC (Escherichia coli Juhl; [11]) [µg/mL] | MIC (Proteus mirabilis 1287) [µg/mL] | MIC [6, 12] [µg/mL] | MIC (Proteus morganii KY 4298; [13]) [µg/mL] | MIC [7] [µg/mL] | MIC [8, 14] [µg/mL] | MIC (Serratia marcescens T-26; [15]) [µg/mL] | MIC (Escherichia coli NIHJC-2; [16]) [µg/mL] | MIC [4, 17] [µg/mL] | MIC (Serratia marcescens T-55; [18]) [µg/mL] | antimicrobial activity [9] | further results
1 | CO/N=C(\C(=O)N[C@@H]1C(=O)N2C(C(=O)O)=C(COC(C)=O)CS[C@H]12)c1csc(N)n1 [C, reference compound] | 50 (≈ 110 µM) | ≤ 0.01 | ≤ 0.01 | 0.05 (≈ 0.11 µM) | 0.05 (≈ 0.11 µM) | 0.02 (≈ 0.0439 µM) | 6.25 (≈ 13.7 µM) | 0.05 (≈ 0.11 µM) | ≤ 0.01 | 0.05 (≈ 0.11 µM) | 0.78 (≈ 1.71 µM) | 0.1 (≈ 0.22 µM) | – | – | – | MIC [1]: 1.56 µg/mL (≈ 3.43 µM); MIC ([2]; Staphylococcus aureus Smith, pH 7.2, read-out: MIC): 1.56 µg/mL (≈ 3.43 µM); MIC ([4]; Staphylococcus aureus, 209P, pH 7.2, Staphylococcus aureus 209-P, read-out: MIC): 0.78 µg/mL (≈ 1.71 µM); MIC (Pseudomonas putida 264; Pseudomonas putida, 264, pH 7.2, Pseudomonas putida 264, read-out: MIC): 0.1 µg/mL (≈ 0.22 µM); MIC (Serratia marcescens T-55; Serratia marcescens, T55, pH 7.2, Serratia marcescens T-55, read-out: MIC): 0.1 µg/mL (≈ 0.22 µM)
2 | CO/N=C(\C(=O)N[C@@H]1C(=O)N2C(C(=O)O)=C[C@@H](C)C[C@H]12)c1csc(N)n1 [B, (-)-cis-7β-[2-(2-amino-4-thiazolyl)-2-syn-methoxyiminoacetamido]-4α-methyl-1-azabicyclo[4,2,0]oct-2-en-8-on-2-carboxylic acid] | 100 (≈ 264 µM) | ≤ 0.01 | ≤ 0.01 | ≤ 0.01 | 0.02 (≈ 0.0527 µM) | ≤ 0.01 | 25 (≈ 65.9 µM) | – | ≤ 0.01 | 0.02 (≈ 0.0527 µM) | 0.4 (≈ 1.05 µM) | 0.02 (≈ 0.0527 µM) | 1.56 (≈ 4.11 µM) | 0.05 (≈ 0.132 µM) | strong antimicrobial activity | MIC ([2]; Staphylococcus aureus, pH 7.2, Staphylococcus aureus Smith, read-out: MIC): 6.25 µg/mL (≈ 16.5 µM); MIC (Pseudomonas putida 264; Pseudomonas putida 264, pH 7.2): 0.05 µg/mL (≈ 0.132 µM); MIC (Proteus morganii KY 4298; Proteus morganii KY 4298, pH 7.2): 0.02 µg/mL (≈ 0.0527 µM)
3 | CO/N=C(\C(=O)N[C@@H]1C(=O)N2C(C(=O)O)=CCC[C@H]12)c1csc(N)n1 [A, (+)-cis-7-[2-(2-amino-4-thiazolyl)-2-syn-methoxyiminoacetamido]-1-azabicyclo[4,2,0]oct-2-en-8-on-2-carboxylic acid] | – | ≤ 0.006 | ≤ 0.006 | – | – | 0.01 (≈ 0.0274 µM) | – | 0.05 (≈ 0.137 µM) | ≤ 0.006 | – | – | – | 3.12 (≈ 8.54 µM) | 0.02 (≈ 0.0547 µM) | strong antimicrobial activity | MIC ([2]; Staphylococcus aureus Smith, pH 7.2): 6.25 µg/mL (≈ 17.1 µM); MIC ([5]; Escherichia coli GN2411-5, pH 7.2): 0.01 µg/mL (≈ 0.0274 µM); MIC (Escherichia coli Juhl; Escherichia coli Juhl, pH 7.2): 0.02 µg/mL (≈ 0.0547 µM); MIC ([6]; Pseudomonas aeruginosa #1, pH 7.2): 6.25 µg/mL (≈ 17.1 µM); MIC ([8]; Klebsiella pneumoniae Y-60, pH 7.2): 0.02 µg/mL (≈ 0.0547 µM); MIC (Serratia marcescens T-26; Serratia marcescens T-26, pH 7.2): 0.2 µg/mL (≈ 0.547 µM); MIC (Escherichia coli NIHJC-2; Escherichia coli NIHJC-2, pH 7.2): 0.02 µg/mL (≈ 0.0547 µM)
